≈ marks a conversion by molar mass, not a printed value.
Experiment: Solubility of the compound
Type: physicochemical
Conditions: not given
Work on `CN(C)CCNC(=O)c1cccc(-c2cc(-c3ccc(N4CCN(C)CC4)cc3)[nH]n2)c1` yielded a solubility greater than 960 µM. `CN1CCN(c2ccc(-c3cc(-c4cccc(C(=O)NCC#N)c4)n[nH]3)cc2Br)CC1` showed a solubility of less than 10 µM. `C[C@H](C#N)NC(=O)c1cccc(-c2cc(-c3ccc(CNC4CCOCC4)cc3)on2)c1` showed a solubility of 240 µM (≈ 103 µg/mL). Work on `CC(C)(C#N)NC(=O)c1cccc(-c2cc(-c3ccc(CNC4CCOCC4)cc3)on2)c1` yielded a solubility of 70 µM (≈ 31.1 µg/mL). `CC(C)NC(=O)c1cccc(-c2cc(-c3ccc(N4CCN(C)CC4)c(-c4ccncc4)c3)[nH]n2)c1` gave a solubility of less than 10 µM. In the case of `C[C@H](C#N)NC(=O)c1cccc(-c2cc(-c3ccc(N4CCN(C)CC4)cc3)on2)c1`, the solubility is reported as less than 10 µM. Molecule `C[C@@H](C#N)NC(=O)c1cccc(-c2cc(-c3ccc(CNC4CCOCC4)cc3)on2)c1` has a solubility of 110 µM (≈ 47.4 µg/mL). For `CC(C)NC(=O)c1cccc(-c2cc(-c3ccc(CNC4CCOCC4)cc3)on2)c1`, the solubility was 140 µM (≈ 58.7 µg/mL). For `CN1CCN(c2ccc(-c3cc(-c4cccc(C(=O)NCCO)c4)n[nH]3)cc2)CC1`, the solubility was 170 µM (≈ 68.9 µg/mL). Molecule `CN1CCN(c2ccc(-c3cc(-c4cccc(C(=O)NCC(F)(F)F)c4)n[nH]3)cc2)CC1` has a solubility of 170 µM (≈ 75.4 µg/mL). For `CC(C)NCc1ccc(-c2cc(-c3cccc(C(=O)N[C@H](C)C#N)c3)[nH]n2)cc1`, the solubility was greater than 990 µM. Work on `CN1CCN(c2ccc(-c3cc(-c4cccc(C(=O)NCC#N)c4)no3)cc2)CC1` yielded a solubility of less than 10 µM. For `CC(C)NC(=O)c1cccc(-c2cc(-c3ccc(N4CCN(C)CC4)cc3)[nH]n2)c1`, the solubility was 270 µM (≈ 109 µg/mL). `CC(C)NC(=O)c1cccc(-c2cc(-c3ccc(N4CCN(C)CC4)c(Br)c3)[nH]n2)c1` gave a solubility of 40 µM (≈ 19.3 µg/mL). With `COCCNCc1ccc(-c2cc(-c3cccc(C(=O)NC(C)C)c3)n[nH]2)cc1` the solubility was 910 µM (≈ 357 µg/mL). `CN1CCN(c2ccc(-c3cc(-c4cccc(C(=O)NCC#N)c4)n[nH]3)cc2)CC1` showed a solubility of 50 µM (≈ 20 µg/mL). `COCCNC(=O)c1cccc(-c2cc(-c3ccc(N4CCN(C)CC4)cc3)[nH]n2)c1` gave a solubility of 760 µM (≈ 319 µg/mL). In the case of `CC(C)NC(=O)c1cccc(-c2cc(-c3ccc(CNCC(F)(F)F)cc3)[nH]n2)c1`, the solubility is reported as less than 10 µM. `CC(C)NC(=O)c1cccc(-c2cc(-c3ccc(CNC4CC4)cc3)[nH]n2)c1` showed a solubility of 220 µM (≈ 82.4 µg/mL). `CC(C)NCc1ccc(-c2cc(-c3cccc(C(=O)N[C@H](C)C#N)c3)no2)cc1` showed a solubility greater than 870 µM. `CCCNC(=O)c1cccc(-c2cc(-c3ccc(N4CCN(C)CC4)cc3)[nH]n2)c1` gave a solubility of 330 µM (≈ 133 µg/mL). In the case of `CC(C)NCc1ccc(-c2cc(-c3cccc(C(=O)NC(C)C)c3)[nH]n2)cc1`, the solubility is reported as greater than 970 µM. For `N#CCNC(=O)c1cccc(-c2cc(-c3ccc(CNC4CCOCC4)cc3)on2)c1`, the solubility was 170 µM (≈ 70.8 µg/mL). Molecule `CN1CCN(c2ccc(-c3cc(-c4cccc(C(=O)NCCC#N)c4)n[nH]3)cc2)CC1` has a solubility of 650 µM (≈ 269 µg/mL). In the case of `C[C@@H](C#N)NC(=O)c1cccc(-c2cc(-c3ccc(N4CCN(C)CC4)cc3)on2)c1`, the solubility is reported as less than 10 µM. For `CC(C)NC(=O)c1cccc(-c2cc(-c3ccc(N4CCN(C)CC4)c(-c4ccccc4)c3)[nH]n2)c1`, the solubility was less than 10 µM.

Experiment: AUC (0 to 8 hrs) in Sprague-Dawley rat at 2 mg/kg, iv or 5 mg/kg, po
Type: ADME, organism-based
Conditions: plasma
`C[C@H](C#N)NC(=O)c1cccc(-c2cc(-c3ccc(CNC4CCOCC4)cc3)on2)c1` showed an AUC(0-t) of 0.84 µM·h.

Experiment: Volume of distribution at steady state in Sprague-Dawley rat at 2 mg/kg, iv or 5 mg/kg, po
Type: ADME, organism-based
Conditions: in vivo, read-out: Vdss
`C[C@H](C#N)NC(=O)c1cccc(-c2cc(-c3ccc(CNC4CCOCC4)cc3)on2)c1` gave a Vd of 6 L/kg.

Experiment: Oral bioavailability in Sprague-Dawley rat at 5 mg/kg
Type: ADME, organism-based
Conditions: in vivo
Molecule `C[C@H](C#N)NC(=O)c1cccc(-c2cc(-c3ccc(CNC4CCOCC4)cc3)on2)c1` has a bioavailability of 38%.
